In patent US20080280815A1, “Lowering Serum Lipids” (Novo Nordisk A/S, priority 2000, published 2008):

What was measured:
[1] = tested on: male Zucker Diabetic Fatty fa/fa (ZDF) rat; assay: Long-term treatment of male Zucker Diabetic Fatty fa/fa (ZDF) rats, model of Type 2 diabetes; assay type: in vivo; conditions: for Free fatty acids / Total cholesterol: mean ± SEM
Description: The male Zucker Diabetic Fatty fa/fa (ZDF) rat is a model of Type 2 diabetes. The rats are insulin resistant but normoglycemic from birth and they develop diabetes from about week 7 to week 10 of age. During the transitional period, the animals go through a state of impaired glucose tolerance. Although the animals are hyperinsulinemic before diabetes onset and during the early stages of diabetes, they later lose glucose-stimulated insulin secretion and finally become almost completely insulinopenic.
Animals were between 7 and 8 weeks old when dosing was initiated, and fed glucose levels were not different between the groups before dosing began. […] After 36 days of dosing, an oral glucose tolerance test was performed in the animals after an 11-hour fast. One g/kg of glucose was administered by oral gavage and subsequent measurements of blood glucose and plasma insulin were made.
In addition to the effects on blood glucose and insulin, we also studied the effects of long-term treatment on lipid parameters. Thus, at the termination of the study, non-fasted plasma measurements of total cholesterol, free fatty acids were performed.

[2] = tested on: Wistar rats subjected to neonatal monosodium glutamate treatment (MSG); assay: Acute and subchronic anorectic effects, model of hypothalamic obesity (MSG rats); assay type: in vivo, rat
Protocol: Solutions were always made fresh approximately 1 hour prior to use and stored at 4° C. in sterile tubes.

normal Wistar rats = assay: Acute and subchronic anorectic effects, normal Wistar rats; assay type: in vivo, rat; conditions: lowered from 1.58±0.1, 100 μg/kg s.c. twice daily
[3] = 150 μg/kg s.c. bi-daily, non-fasted plasma at termination
[4] = group B, 30 μg/kg s.c. bi-daily, non-fasted plasma at termination
[5] = group C, 150 μg/kg s.c. bi-daily, non-fasted plasma at termination
[6] = 100 μg/kg s.c. twice daily, normal and MSG rats not distinguished
[7] = initial effect, normalised within few days of treatment

For “Arg^34, Lys^26(N^ε-(γ-Glu(N^α-hexadecanoyl)))-GLP-1(7-37) [GLP1]”, the “free fatty acids, group C compared to group A (vehicle)” value [1, 3] was “significant reduction”, the “total cholesterol, group C compared to group A (vehicle)” value [1, 3] was “significant reduction” and the “blood glucose state during a normal 24-hour feeding schedule” value ([1]; group B, 30 μg/kg s.c. bi-daily, after 10 days of dosing) was “hyperglycemic”. For the same substance, the Free fatty acids [1, 4] was 0.29 ± 0.04 mM, the Total cholesterol [1, 4] was 2.9 ± 0.1 mM and the “blood glucose levels during a normal 24-hour feeding schedule vs vehicle- and low-dose-treated animals” value ([1]; group C, 150 μg/kg s.c. bi-daily, after 10 days of dosing) was “significantly lower”. For the same substance, the “blood glucose levels during a normal 24-hour feeding schedule” value ([1]; group C, 150 μg/kg s.c. bi-daily, after 10 days of dosing, compared to initial measurements) was “unchanged”, the “glycemic level in oral glucose tolerance test vs groups A and B” value ([1]; group C, 150 μg/kg s.c. bi-daily, after 36 days of dosing, 11-hour fast, 1 g/kg glucose by oral gavage) was “significantly lower” and the Free fatty acids [1, 5] was 0.20 ± 0.02 mM. For the same substance, the Total cholesterol [1, 5] was 2.2 ± 0.1 mM, the body weight [2, 6] was “reduced” and the food intake [2, 6] was “inhibition”. For the same substance, the diuresis [2, 7] was “increases”, the water intake [2, 7] was “Initial decreases” and the “plasma parameters of renal function” value ([2]; throughout the experiment) was “remained normal”. For the same substance, the “plasma levels of triglycerides” value (normal Wistar rats) was 1.21 ± 0.3 mM.
